Laboratory results as given in patent publication US8951734B2, “Prion-like form of CPEB and related compositions and methods” (priority 2003, dated 2015).
*1 amine or outer side, *2 acyl side, *3 side chain or, on linkers, in order; H or OH if unused. Where a SMILES comes first, the peptide text is derived from it. Bridges are numbered along the chain shown (N, C = ends). Roman numbers before positions name the chains, in order. [ ]: non-standard residue; d: D form. Actinocin(9to1) = Cc1c2oc3c(C)ccc(C(=O)[*:1])c3nc-2c(C(=O)[*:2])c(N)c1=O; NMeV = CN[C@H](C(=O)O)C(C)C; Sar = CNCC(=O)O

Experiments:
[1] = system: ApCPEB; test: ApCPEB protein induction in isolated pleural ganglia / sensory cell clusters stimulated with 5-HT, with or without pharmacological agents (Western blot); type: cell-based, Aplysia; settings: for effect on 5-HT induction of ApCPEB: pretreatment
Description: (§1) Aplysia weighing 80-100 grams were used for serotonin (5-HT) stimulation. For whole animal stimulation, the animals were stimulated for 1-1.5 hr at 17° C. with 100 uM of freshly prepared serotonin (Sigma) and then moved to sea water at 17° C. At designated times the pleural ganglia were dissected out. The dissection was carried out in ice cold seawater and frozen in a dry ice-ethanol bath. To apply different pharmacological agents, the pleural ganglia were dissected out and rested for 3-4 hrs at 17° C. before initiation of the treatment. The pleural ganglia were stimulated with 10 uM serotonin instead of 100 uM.
(§2) For western blotting pleural ganglia were homogenized in a buffer containing 600 mM KCl, 10 mM HEPES (7.4), 3 mM MgCl2, 1 mM DTT, and 0.2% NP-40; rotated at 4° C. for 20 min, centrifuged at 14,000×g for 10 min and the supernatant was collected. Approximately 10 ug of total protein was separated on a 10% SDS-PAGE gel and transferred to PVDF membrane. The membranes were blotted with affinity purified CPEB 533 (1:4000), rabbit affinity purified Aplysia Ubiquitin hydrolase (1:1500), rabbit anti-synaptophysin (Zymed) (1:3000), mouse anti-human Hsp70 (1:4000) (BD Biosciences) or monoclonal anti-tubulin (1:3000) (Sigma) followed by incubation with 1:10,000 dilution of HRP coupled anti-rabbit or anti-mouse secondary antibody (Cell signaling) and visualized by chemiluminescence (Pierce chemical). For peptide competition the CPEB77 antibody was preincubated with the peptide (1:20 w/w) at 4° C. for 30 min.

[2] = system: ApCPEB; test: ApCPEB immunostaining in isolated sensory neurites (cell bodies severed); type: cell-based, Aplysia
Description: (§3) Following stimulation with serotonin, the cells were washed with filtered seawater and then fixed with freshly prepared 4% paraformaldehyde (PFA) in phosphate-buffered saline (PBS) plus 30% sucrose at 37° C. for 20 min. After fixation, cells were washed three times with PBS and incubated with 0.5% saponin (for isolated neurites) or 0.1% Triton X-100 (for one pulse of serotonin in the neurites) in PBS for 10 min at room temperature (RT). Subsequently cells were washed with PBS three times and excess PFA was quenched by incubating the cells in 50 mM NH4Cl in PBS for 15 min at RT. The fixed cells were blocked with a mixture of heat-inactivated 10% horse serum and 1% goat serum in PBS for 2 hr at RT, then in 1:30 dilution of affinity purified CPEB77 (for isolated neurites) or 1:100 dilution of 463 (for one pulse of serotonin in the synapse) overnight at 4° C. Next day cells were washed three times (20 min each wash) with PBS at RT before incubating with goat anti-rabbit secondary antibody conjugated with Alexa Fluor 488 (1:1000) (Molecular Probes) for 2 hr at room temperature. After three 15 min rinses with PBS cells were mounted on Fluoromount and pictures were taken at Zeiss Axiovert S-100 at 40× magnification using the program Metamorph.

[3] = system: ApCPEB; test: ApCPEB protein in pleural ganglia after whole-animal serotonin exposure (Western blot); type: in vivo, Aplysia
Description: as §1, §2

[4] = system: N-actin mRNA; test: Poly-A tail length (PAT) assay of N-actin mRNA after whole-animal serotonin stimulation; type: in vivo, Aplysia
Description: The polyA test (PAT) to measure the length of the polyA tail of CPEB mRNA was essentially done as described by Salles and Strickland (1999). Total RNA from the plural ganglia was digested with DNase1 and phenol: chloroform extracted. 3 ug of total RNA was reverse transcribed with 200 ng of AdT primer (5′-[…]-3′) (SEQ ID NO:23) using AMV reverse transcriptase. 2 ul of the cDNA was amplified with Taq polymerase using AdT and N-actin primer 5′-[…]-3′ (SEQ ID NO:17) in the PCR cycle: 94° C. 30 sec, 60° C. 1 min and 72° C. 1 min, 5 sec/cycle for 30 cycles. To check the amount of sensorin, Bmp1 and N-actin, the following primer pairs were used; sensorin-5′-AACAGAAACAGTC-TTTCCCCC-3′ (SEQ ID NO:24) and 5′-TCTTGACTCACCAACTGCC-3′ (SEQ ID NO:25), Bmp1-5′-ATCTATCGCCTATT-ATTATCACCA-3′ (SEQ ID NO:26) and 5′-[…]-3′ (SEQ ID NO:27), N-actin 5′-CCCATCCAT-TGTCCACA-3′ (SEQ ID NO:28) and 5′-TTTGAGCATTCTGGCTTC-3′(SEQ ID NO:29).

[5] = system: ApCPEB mRNA; test: Semi-quantitative RT-PCR of ApCPEB mRNA in sensory cells of pleural ganglia; type: cell-based, Aplysia
[6] = system: ApCPEB; test: ApCPEB immunostaining in bifurcated sensory-motor culture, one branch stimulated with a single pulse of 5-HT; type: cell-based, Aplysia; settings: 10 uM 5-HT for 50 seconds to one branch; fixed after one hour; n=10
Description: as §3, with “Metamorph. […]” for “Metamorph.”

[7] = system: sensory-motor neuron synapses; settings: cited from earlier work
[8] = whole animal serotonin exposure then seawater

For `CCCCCCOC(=O)[C@]1(O)C[C@@H]2O[C@@]1(C)n1c3ccccc3c3c4c(c5c6ccccc6n2c5c31)C(=O)NC4` [KT5720], which “effect on serotonin induced increase in ApCPEB” value ([1]; PKA inhibitor pretreatment of sensory clusters, 30 min) is on record?
Its value is “did not block”.

With `COc1ccc2c(c[n+](C)c3c4cc5c(cc4ccc23)OCO5)c1OC` [chelerythrine] as the molecule, how does the “effect on serotonin dependent increase of ApCPEB protein” value ([1]; PKC inhibitor, 10 uM) read?
The value was “did not affect”.

With `Cc1c2oc3c(C)ccc(C(=O)N[C@@H]4C(=O)N[C@H](C(C)C)C(=O)N5CCC[C@H]5C(=O)N(C)CC(=O)N(C)[C@@H](C(C)C)C(=O)O[C@@H]4C)c3nc-2c(C(=O)N[C@@H]2C(=O)N[C@H](C(C)C)C(=O)N3CCC[C@H]3C(=O)N(C)CC(=O)N(C)[C@@H](C(C)C)C(=O)O[C@@H]2C)c(N)c1=O` [actinomycin D] (I: T[dV]P[Sar][NMeV] / II: T[dV]P[Sar][NMeV]; ester I:1-I:C, II:1-II:C; linker I:N-II:N via Actinocin(9to1)) as the molecule, how does the “effect on 5-HT induction of ApCPEB” value ([1]; 10 ug/ml) read?
Its value is “did not block”.

For `CC[C@H]1CN2CCc3cc(OC)c(OC)cc3[C@@H]2C[C@@H]1C[C@H]1NCCc2cc(OC)c(OC)cc21` [emetine], which “effect on 5-HT induction of ApCPEB protein” value ([1]; 100 uM) is on record?
The value was “reduced”.

Which “average fluorescence intensity (ApCPEB immunoreactivity)” value ([2]; neurites stimulated with 5-HT in presence of 20 nM rapamycin, n=9) does the source give for `CO[C@H]1C[C@@H]2CC[C@@H](C)[C@@](O)(O2)C(=O)C(=O)N2CCCC[C@H]2C(=O)O[C@H]([C@H](C)C[C@@H]2CC[C@@H](O)[C@H](OC)C2)CC(=O)[C@H](C)/C=C(\C)[C@@H](O)[C@@H](OC)C(=O)[C@H](C)C[C@H](C)/C=C/C=C/C=C/1C` [rapamycin] here?
The value was 0.77±0.1.

Which “effect on 5-HT induction of ApCPEB” value ([1]; 50 ug/ml) does the source give for `CC[C@H](C)[C@@H]1NC(=O)CNC(=O)[C@@H]2Cc3c([nH]c4cc(O)ccc34)[S+]([O-])C[C@@H](NC(=O)CNC1=O)C(=O)N[C@@H](CC(N)=O)C(=O)N1C[C@H](O)C[C@H]1C(=O)N[C@@H]([C@@H](C)[C@@H](O)CO)C(=O)N2` (stereo in doubt) [α-amanitin] here?
Its value is “did not block”.

Which results are given for `NCCc1c[nH]c2ccc(O)cc12` [serotonin]?
increase of total content of ApCPEB ([3]; whole animal exposed to serotonin for one hour, thirty minutes after initiation of treatment, pleural ganglia extract): 4 to 5 fold; persistence of increased level of ApCPEB [3, 8]: about 3 hours; return of ApCPEB to basal levels [3, 8]: returned to basal levels after five hours; duration of increased poly(A) tail of N-actin ([4]; whole-animal stimulation): at least 4 hours; increase of poly(A) tail of N-actin ([4]; within an hour after initiation of treatment): 200-400 nucleotides; amount of ApCPEB mRNA, treated versus untreated [5]: no significant difference; average fluorescence intensity (ApCPEB immunoreactivity) in treated branch [6]: 53.3±8.7; duration of long-term facilitation (LTF) ([7]; five pulses (Martin et al. 1997)): three or more days; duration of synapse-specific short-term facilitation ([7]; single pulse to one of two sets of synapses (Martin et al. 1997)): lasts for minutes; average fluorescence intensity (ApCPEB immunoreactivity) in stimulated neurites ([2]; 10 uM 5-HT bath application 1 hr, n=8): 9.37±0.73; average fold induction of ApCPEB ([1]; 5-HT for an hour, western blots scanned and quantified with NIH image, controls of inhibitor sets (FIG. 5d)): 3.3±0.4; increase of total CPEB content ([1]; isolated pleural ganglia, 10 uM 5-HT): 3-4 fold; increase in total ApCPEB protein content ([1]; sensory cell clusters, 10 uM 5-HT for 10 min, then seawater 50 min): 4-5 fold

For `Nc1ncnc2c1ncn2[C@@H]1O[C@@H]2COP(O)(=S)O[C@H]2[C@H]1O` (stereo partly drawn) [SpcAMP], which “level of ApCPEB” value ([1]; activation of PKA by cell permeable cAMP analog, data not shown) is on record?
The value was “did not change”.

For `C[C@@H]1C[C@@H]([C@H](O)CC2CC(=O)NC(=O)C2)C(=O)[C@@H](C)C1` [cycloheximide], which “effect on 5-HT induction of ApCPEB protein” value ([1]; 40 uM) is on record?
Its value is “reduced”.
